Earlier results, collected in patent US6334999B1, “Liposomal aerosols for delivery of chemotherapeutic retinoids to the lungs” (Research Development Foundation, priority 1999, dated 2002).

Details: mouse, in vivo

CC1=C(/C=C/C(C)=C/C=C/C(C)=C/C(=O)O)C(C)(C)CCC1 [free ATRA, all-trans-retinoic acid]
dose exerting toxic effects: 25-30 mg/kg of body weight
